Reference: patent US11214594B2, “Antimicrobial peptide having synergistic antibacterial effect with antibiotics on multidrug resistant bacteria, and use thereof” (priority 2016, dated 2022)
Converted amounts (≈) assume the structure as drawn. Where a SMILES comes first, the peptide text is derived from it. [ ]: non-standard residue; d: D form.

Key:
[1] = tested on: MDREC 1238; type: cell-based, Escherichia coli
Procedure, shortened: (§1)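 Broth microdilution in MH medium: bacterial strains diluted to 2×10^6 CFU were mixed with equal volumes of peptide serially diluted twofold in MH medium.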

[2] = tested on: P. aeruginosa; experiment: microbe, parasite or virus in culture; type: cell-based, Pseudomonas aeruginosa
Procedure, shortened: as §1

[3] = tested on: MDRPA 2003; type: cell-based, Pseudomonas aeruginosa
Procedure, shortened: as §1

[4] = tested on: MDRAB 12036; type: cell-based, Acinetobacter baumannii
Procedure, shortened: as §1

[5] = tested on: MDRST 8009; type: cell-based, Salmonella typhimurium; settings: agent alone
Procedure, shortened: as §1

[6] = tested on: S. epidermidis; experiment: microbe, parasite or virus in culture; type: cell-based, Staphylococcus epidermidis
Procedure, shortened: as §1

[7] = tested on: MDREC 1229; experiment: MIC of antibiotic during combined treatment with antimicrobial peptide; type: cell-based, Escherichia coli
Procedure, shortened: (§2)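 Strains in MH medium at 2×10^6 CFU/ml were mixed with peptide diluted stepwise (2:1) from its MIC, then antibiotic dilutions in MH medium were added to give the antibiotic MIC. The reversed set-up, peptide titrated against fixed antibiotic, gave the peptide MIC.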

[8] = tested on: A. baumannii; experiment: as above; type: cell-based, Acinetobacter baumannii; settings: for Antibiotic MIC, Erythromycin / Antibiotic MIC, Linezolid / Antibiotic MIC, Vancomycin: A. baumannii
Procedure, shortened: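 Read-out is the MIC of each combined solution, obtained from MH-medium dilutions of antibiotic added well by well, with a reversed-condition run as well.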

[9] = tested on: MDRAB 12035; experiment: as above; type: cell-based, Acinetobacter baumannii
Procedure, shortened: as §2

[10] = peptide treatment concentration 1 μg/ml
[11] = peptide treatment concentration 2 μg/ml
[12] = peptide treatment concentration 4 μg/ml
[13] = peptide treatment concentration 6 μg/ml
[14] = peptide treatment concentration 8 μg/ml
[15] = peptide treatment concentration 16 μg/ml
[16] = peptide treatment concentration 32 μg/ml
[17] = peptide treatment concentration 64 μg/ml
[18] = combined with peptide at 1 μg/ml
[19] = combined with peptide at 2 μg/ml
[20] = combined with peptide at 4 μg/ml
[21] = combined with peptide at 6 μg/ml
[22] = combined with peptide at 8 μg/ml
[23] = combined with peptide at 16 μg/ml
[24] = combined with peptide at 32 μg/ml
[25] = combined with peptide at 64 μg/ml

CC[C@H](C)[C@H](NC(=O)[C@H](CCCCN)NC(=O)[C@H](Cc1c[nH]c2ccccc12)NC(=O)[C@@H](N)CCCNC(=N)N)C(=O)N[C@@H](Cc1ccccc1)C(=O)N[C@@H](CCCCN)C(=O)N[C@@H](CCCCN)C(=O)N[C@H](C(=O)N[C@H](CCCCN)C(=O)N[C@@H](CCCCN)C(=O)N[C@@H](CC(C)C)C(=O)N[C@@H](CC(C)C)C(=O)N[C@@H](Cc1c[nH]cn1)C(=O)N[C@@H](CCC(=O)O)C(=O)N[C@@H](Cc1ccccc1)C(=O)N[C@@H](CCCCN)C(=O)N[C@@H](CCCCN)C(=O)N[C@@H](Cc1ccccc1)C(N)=O)[C@@H](C)CC [PapMA-19, RWK IFK KIk KLL HEF KKF-NH2] (H-RWKIFKKI[dK]KLLHEFKKF-NH2; N-terminus assumed)
Minimal inhibitory concentration MIC [1]: 32 µg/mL (≈ 13.2 µM) | Minimal inhibitory concentration MIC [2]: 64 µg/mL (≈ 26.5 µM) | Minimal inhibitory concentration MIC [3]: 64 µg/mL (≈ 26.5 µM) | Minimal inhibitory concentration MIC [4]: 32 µg/mL (≈ 13.2 µM) | Minimal inhibitory concentration MIC [5]: 64 µg/mL (≈ 26.5 µM) | Minimal inhibitory concentration MIC [6]: >128 µg/mL | Antibiotic MIC, Erythromycin [7, 10]: 128 µg/mL | Antibiotic MIC, Linezolid [7, 10]: >128 µg/mL | Antibiotic MIC, Vancomycin [7, 10]: >128 µg/mL | Antibiotic MIC, Erythromycin [7, 11]: 32 µg/mL | Antibiotic MIC, Linezolid [7, 11]: 128 µg/mL | Antibiotic MIC, Vancomycin [7, 11]: 128 µg/mL | Antibiotic MIC, Erythromycin [7, 12]: 8 µg/mL | Antibiotic MIC, Linezolid [7, 12]: 32 µg/mL | Antibiotic MIC, Vancomycin [7, 12]: 64 µg/mL | Antibiotic MIC, Erythromycin [7, 13]: 2 µg/mL | Antibiotic MIC, Linezolid [7, 13]: 16 µg/mL | Antibiotic MIC, Vancomycin [7, 13]: 8 µg/mL | Antibiotic MIC, Erythromycin [7, 14]: 1 µg/mL | Antibiotic MIC, Linezolid [7, 14]: 16 µg/mL | Antibiotic MIC, Vancomycin [7, 14]: 8 µg/mL | Antibiotic MIC, Erythromycin [7, 15]: 0.5 µg/mL | Antibiotic MIC, Linezolid [7, 15]: 4 µg/mL | Antibiotic MIC, Vancomycin [7, 15]: 4 µg/mL | Antibiotic MIC, Erythromycin [7, 16]: 0 µg/mL | Antibiotic MIC, Linezolid [7, 16]: 0 µg/mL | Antibiotic MIC, Vancomycin [7, 16]: 0 µg/mL | Antibiotic MIC, Erythromycin [7, 17]: 0 µg/mL | Antibiotic MIC, Linezolid [7, 17]: 0 µg/mL | Antibiotic MIC, Vancomycin [7, 17]: 0 µg/mL | Synergistic effect of antibacterial activity with existing antibiotics compared with PapMA-1 ([8]; A. baumannii and MDRAB 12035): higher level than the PapMA-1 peptide | Antibiotic MIC, Erythromycin [8, 18]: 32 µg/mL | Antibiotic MIC, Linezolid [8, 18]: >128 µg/mL | Antibiotic MIC, Vancomycin [8, 18]: >128 µg/mL | Antibiotic MIC, Erythromycin [8, 19]: 16 µg/mL | Antibiotic MIC, Linezolid [8, 19]: 64 µg/mL | Antibiotic MIC, Vancomycin [8, 19]: 128 µg/mL | Antibiotic MIC, Erythromycin [8, 20]: 4 µg/mL | Antibiotic MIC, Linezolid [8, 20]: 16 µg/mL | Antibiotic MIC, Vancomycin [8, 20]: 32 µg/mL | Antibiotic MIC, Erythromycin [8, 21]: 2 µg/mL | Antibiotic MIC, Linezolid [8, 21]: 8 µg/mL | Antibiotic MIC, Vancomycin [8, 21]: 8 µg/mL | Antibiotic MIC, Erythromycin [8, 22]: 0.25 µg/mL | Antibiotic MIC, Linezolid [8, 22]: 4 µg/mL | Antibiotic MIC, Vancomycin [8, 22]: 4 µg/mL | Antibiotic MIC, Erythromycin [8, 23]: 0 µg/mL | Antibiotic MIC, Linezolid [8, 23]: 0 µg/mL | Antibiotic MIC, Vancomycin [8, 23]: 0 µg/mL | Antibiotic MIC, Erythromycin [8, 24]: 0 µg/mL | Antibiotic MIC, Linezolid [8, 24]: 0 µg/mL | Antibiotic MIC, Vancomycin [8, 24]: 0 µg/mL | Antibiotic MIC, Erythromycin [8, 25]: 0 µg/mL | Antibiotic MIC, Linezolid [8, 25]: 0 µg/mL | Antibiotic MIC, Vancomycin [8, 25]: 0 µg/mL | Erythromycin MIC during combined treatment with peptide [9, 10]: 32 µg/mL | Linezolid MIC during combined treatment with peptide [9, 10]: >128 µg/mL | Vancomycin MIC during combined treatment with peptide [9, 10]: >128 µg/mL | Erythromycin MIC during combined treatment with peptide [9, 11]: 16 µg/mL
